{"source": "patent US20020016369A1", "about": "“Use of nimesulide for the treatment of psoriasis and psoriatic arhtritis” (priority 2000, published 2002)", "test_system": "patients affected by psoriatic arthritis", "description": "Controlled double-blind clinical trials were carried out on patients 18 to 70 years old affected by psoriatic arthritis showing at least three swollen joints, absence of rheumatoid factor and no other rheumatic conditions.\nThe patients, who received no previous pharmacological treatment with antirheumatic drugs during the three-month pre-study period, were treated for 4 weeks with Nimesulide (100 to 400 mg/day orally or application of a 3% gel twice a day).\nAt the end of the treatment period, the following parameters were evaluated:\nnumber of tender and swollen joints\nskin symptoms evaluated according to the Psoriasis Area Severity Index (PASI)", "key": {"[1]": {"conditions": "patients 18 to 70 years old, 4 weeks, 100 to 400 mg/day orally or 3% gel twice a day"}}, "data": [{"smiles": "CS(=O)(=O)Nc1ccc([N+](=O)[O-])cc1Oc1ccccc1", "note": "[Nimesulide]", "values": [{"measurement": "action on joint flogosis", "setting": "general statement of finding", "result": "beneficial action on joint flogosis"}, {"measurement": "effect on skin lesions", "setting": "general statement of finding", "result": "remarkable improvement of such lesions"}, {"measurement": "clinical efficacy in oligopolyarticular psoriatic arthritis", "setting": "[1]", "result": "clinically effective in the treatment of oligopolyarticular psoriatic arthritis in a statistically significant way"}, {"measurement": "toxic or untoward effects (tolerability)", "setting": "[1]", "result": "no toxic or untoward effect, particularly no gastrointestinal adverse effect"}]}]}
